This series can be described thus: Waters ACQUITY UPLC BEH C18, 100 × 2.1 mm, 1.7 µm, 40 °C, 0.3 to 0.4 mL/min, estimated dead time 0.63 min; A: water + 0.1% formic acid; B: methanol + 0.1% formic acid; gradient (min/%B) 0/0.5 0.1/0.5 10/80 10.1/99.5 12/99.5. Particulars: stereoisomer not certain.

Turning to `CC1OC(Oc2c(-c3ccc(O)c(O)c3)oc3cc(O)cc(O)c3c2=O)C(OC2OC(COC(=O)C=Cc3ccc(O)cc3)C(O)C(O)C2O)C(O)C1O` (stereo not drawn), the LC retention time was 4.67 min.

On to `CC(C)CC(N)C(=O)NC(C)C(=O)O` (stereo not drawn), for which the LC retention time is 2.02 min. For the molecule `COc1cc(-c2[o+]c3cc(O)cc(OC4OC(CO)C(O)C(O)C4O)c3cc2OC2OC(CO)C(O)C(O)C2O)cc(OC)c1O` (stereo not drawn), the LC retention time is 2.81 min.

`COc1cc(O)c2c(c1)OC(c1ccc(O)cc1)CC2=O` (stereo not drawn): the LC retention time was 7.42 min. For the molecule `CCC12CCCN3CCc4c(n(c5ccccc45)C(=O)C1)C32` (stereo not drawn), the LC retention time was 4.65 min. As for `CC(=O)c1cccc2oc(=O)[nH]c12`, the LC retention time was 3.93 min. For the molecule `CCC=CCC=CC=CC(O)CCCCCCCC(=O)O` (stereo not drawn), the LC retention time was 9.1 min.

With `COc1cc(CC2COC(c3ccc(O)c(OC)c3)C2CO)ccc1O` (stereo not drawn), the LC retention time is 4.96 min. In the case of `CC(C)CC(N)C(=O)O` (stereo not drawn), the LC retention time is 1.87 min. Consider `O=c1cc(-c2ccc(O)c(O)c2)oc2cc(O)c(C3OC(CO)C(O)C(O)C3OC3OC(CO)C(O)C(O)C3O)c(O)c12` (stereo not drawn), for which the LC retention time was 3.44 min.

Turning to `Oc1ccc(C=Cc2cc(O)cc3c2C(c2cc(O)cc(O)c2)C(c2ccc(O)cc2)O3)cc1` (stereo not drawn), the LC retention time was 5.81 min.

Turning to `CC(=O)OC1CC(COC2OC(CO)C(O)C(O)C2O)CNC12OC1CC3C4CCC5CC(OC6OC(CO)C(OC7OC(CO)C(OC8OCC(O)C(O)C8O)C(O)C7OC7OC(CO)C(O)C(O)C7O)C(O)C6O)CCC5(C)C4CCC3(C)C1C2C` (stereo not drawn), the LC retention time was 3.59 min. As for `NC(Cc1ccccc1)C(=O)O` (stereo not drawn), the figure is 2.3 min. As for `CC1OC(OC2C(O)C(CO)OC(Oc3c(-c4ccc(O)cc4)oc4cc(O)cc(O)c4c3=O)C2O)C(O)C(O)C1O` (stereo not drawn), the figure is 4.15 min; as for `O=C1OCC(Cc2cccc(O)c2)C1Cc1cccc(O)c1` (stereo not drawn), 6.18 min; as for `COc1cc(C2OCC3C(c4cc(OC)c(OC5OC(CO)C(O)C(O)C5O)c(OC)c4)OCC23)cc(OC)c1OC1OC(CO)C(O)C(O)C1O` (stereo not drawn), 3.61 min.

Take `O=C(O)CC(=O)OCC1OC(Oc2cc(O)c3c(=O)cc(-c4ccc(O)c(O)c4)oc3c2)C(O)C(O)C1O` (stereo not drawn): the LC retention time was 4.59 min. In the case of `Oc1cc(O)c2c(c1)OC(c1ccc(O)c(O)c1)C(O)C2c1c(O)cc(O)c2c1OC(c1ccc(O)c(O)c1)C(O)C2c1c(O)cc(O)c2c1OC(c1ccc(O)c(O)c1)C(O)C2` (stereo not drawn), the LC retention time is 3.46 min. As for `CC1OC(OC2C(CO)OC(OCC3OC(OC(=O)C45CCC(C)(C)CC4C4=CCC6C7(C)CCC(OC8OCC(O)C(O)C8OC8OC(C)C(O)C(O)C8O)C(C)(CO)C7CCC6(C)C4(C)CC5)C(O)C(O)C3O)C(O)C2O)C(O)C(O)C1O` (stereo not drawn), the figure is 5.38 min; as for `O=C(O)CC(=O)OCC1OC(Oc2cc(O)c3c(=O)c(-c4ccc(O)cc4)coc3c2)C(O)C(O)C1O` (stereo not drawn), 4.89 min. Regarding `CC1=NCCc2c1[nH]c1cc(O)ccc21`, the LC retention time is 3.06 min.

As to `COc1cc(C=CC(=O)NCCCCN=C(N)N)ccc1O`, the LC retention time was 3.22 min. As for `O=C(O)CCCCCCC(=O)O`, the LC retention time was 4.1 min. For `COc1cc(C=CC(=O)NCCCCN=C(N)N)cc(OC)c1O`, the LC retention time is 3.27 min. As for `CC(C)=CCCC(C)(O)C1CCC2(C)C1C(O)CC1C3(C)CCC(O)C(C)(C)C3C(OC3OC(CO)C(O)C(O)C3OC3OC(CO)C(O)C(O)C3O)CC12C` (stereo not drawn), the figure is 5.94 min.

With `O=C(C=Cc1ccc(O)c(O)c1)OC1CC(O)(C(=O)O)CC(OC(=O)C=Cc2ccc(O)c(O)c2)C1O` (stereo not drawn), the LC retention time is 4.6 min. With `O=c1cc(-c2ccc(O)cc2)oc2cc(OC3OC(CO)C(O)C(O)C3O)c(O)c(O)c12` (stereo not drawn), the LC retention time is 4.13 min. As for `CC1OC(Oc2c(-c3ccc(O)c(O)c3)oc3cc(OC4OC(CO)C(O)C(O)C4O)cc(O)c3c2=O)C(OC2OC(COC(=O)C=Cc3ccc(O)cc3)C(O)C(O)C2O)C(O)C1O` (stereo not drawn), the LC retention time was 4.48 min.

With `CC(=O)OC1CCC2(C)C(=CCC3C2CCC2(C)C3CC3OC4(CCC(C)CN4)C(C)C32)C1` (stereo not drawn), the LC retention time was 8.16 min. Consider `CCC=CCC=CCC=CCCCCCCCC(=O)OCC(O)COP(=O)([O-])OCC[N+](C)(C)C` (stereo not drawn), for which the LC retention time is 8.93 min.

With `COC(=O)C1CC23CCCN4CCC5(c6ccccc6NC15C2C)C43` (stereo not drawn), the LC retention time is 4.24 min.

For the molecule `CC(C)CC(N)C(=O)NC(CC(C)C)C(=O)O` (stereo not drawn), the LC retention time was 3.29 min. As for `CC(C)=CCc1cc(C2COc3cc(O)c(CC=C(C)C)c(O)c3C2=O)ccc1O` (stereo not drawn), the figure is 9.45 min; as for `CC1OC(Oc2cc(O)c3c(=O)c(OC4OC(CO)C(O)C(O)C4OC4OC(CO)C(O)C(O)C4O)c(-c4ccc(O)c(O)c4)oc3c2)C(O)C(O)C1O` (stereo not drawn), 2.95 min.

On to `COCC=C1CN2C3CC45C(=Nc6c(OC)cc(OC)c(OC)c64)OCC3C1CC25` (stereo not drawn), for which the LC retention time was 3.82 min.

On to `O=c1c(O)c(-c2ccc(O)cc2)oc2ccccc12`, for which the LC retention time is 8.56 min.

As for `COc1ccc(CCNC(=O)C=Cc2ccc(O)c(OC)c2)cc1O`, the LC retention time is 5.29 min.

`COc1ccc(CC2COC(=O)C2Cc2ccc(OC3OC(CO)C(O)C(O)C3O)c(OC)c2)cc1OC` (stereo not drawn): the LC retention time was 5.18 min. Take `O=C(C=Cc1ccc(O)c(O)c1)OC1CC(O)(C(=O)O)CC(O)C1O` (stereo not drawn): the LC retention time was 3.13 min.

As to `CC(CCC1(O)OC2CC3C4CC=C5CC(O)CC(OC6OC(CO)C(O)C(O)C6O)C5(C)C4CCC3(C)C2C1C)COC1OC(CO)C(O)C(O)C1OC1OC(C)C(O)C(O)C1O` (stereo not drawn), the LC retention time was 4.34 min. As for `CC(C)=CCc1c(O)c(-c2cc(-c3cc(=O)c4c(O)cc(O)cc4o3)ccc2O)c2oc(-c3ccc(O)cc3)cc(=O)c2c1O`, the LC retention time was 7.57 min. As for `COc1cc(C=CC(=O)NC=Cc2ccc(O)cc2)ccc1O`, the figure is 4.3 min; as for `NC(=O)CN1CC2CC(C1)c1cccc(=O)n1C2` (stereo not drawn), 2.18 min; as for `CC1CNC2C(C)C3C(CC4C5CCC6CC(OC7OC(CO)C(OC8OC(CO)C(O)C(OC9OCC(O)C(O)C9O)C8OC8OC(CO)C(O)C(O)C8O)C(O)C7O)CCC6(C)C5CCC43C)OC2(O)C1` (stereo not drawn), 4.02 min. For the molecule `CC(O)(CC(=O)O)CC(=O)O`, the LC retention time is 1.98 min. As for `CCCCCCCCCCCCCCCC(=O)OCC(O)COP(=O)([O-])OCC[N+](C)(C)C` (stereo not drawn), the figure is 9.91 min; as for `COc1ccc2c(c1)OC(OC1OC(C(=O)O)C(O)C(O)C1O)C(O)N2` (stereo not drawn), 2.19 min.

For `CC(C)=CCc1c(O)ccc2c1OC(c1ccc(O)cc1)CC2=O` (stereo not drawn), the LC retention time was 8.93 min. As for `CC(C)=CCCC(C)(O)C1CCC2(C)C1C(O)CC1C3(C)CCC(O)C(C)(C)C3C(OC3OC(CO)C(O)C(O)C3O)CC12C` (stereo not drawn), the figure is 6.29 min. `COc1cc(-c2cc(=O)c3c(O)cc(OC4OC(C(=O)O)C(O)C(O)C4OC4OC(C(=O)O)C(O)C(O)C4O)cc3o2)cc(OC)c1O` (stereo not drawn): the LC retention time is 3.96 min. As for `CC(C)=CCCC(C)(OC1OC(CO)C(O)C(O)C1O)C1CCC2(C)C1C(O)CC1C3(C)CCC(O)C(C)(C)C3CCC12C` (stereo not drawn), the figure is 9.51 min; as for `CC1OC(OC2C(OC3C(OC4CCC5(C)C(CCC6(C)C5CC=C5C7CC(C)(C)CC(O)C7(C)CCC56C)C4(C)CO)OC(C(=O)O)C(O)C3O)OCC(O)C2O)C(O)C(O)C1O` (stereo not drawn), 7.28 min. On to `c1ccc2c(c1)[nH]c1cnccc12`, for which the LC retention time was 3.48 min. Next, `O=C(O)CC(O)(CC(=O)O)C(=O)O`: 1.57 min.

With `O=C(O)CC(=O)OCC1OC(Oc2cc(O)c3c(=O)cc(-c4ccc(O)cc4)oc3c2)C(O)C(O)C1O` (stereo not drawn), the LC retention time was 5.16 min.

For the molecule `O=C1c2c(O)cc(O)cc2OC(c2ccc(O)cc2)C1O` (stereo not drawn), the LC retention time was 4.8 min. In the case of `O=c1c(O)c(-c2ccc(O)c(O)c2)oc2cc(O)cc(O)c12`, the LC retention time was 5.37 min. With `CC1OC(OCC2OC(Oc3c(-c4ccccc4O)oc4cc(O)cc(O)c4c3=O)C(O)C(O)C2O)C(O)C(O)C1O` (stereo not drawn), the LC retention time is 4.1 min. As for `CC(C)CC(NC(=O)Cc1c[nH]c2ccccc12)C(=O)O` (stereo not drawn), the figure is 6.2 min.

Take `CC(C)CC(NC(=O)C(N)CO)C(=O)O` (stereo not drawn): the LC retention time is 2.38 min.

Regarding `CCOC(=O)Oc1c(OC)cc(C(=O)OC2CC3CN4CCc5c([nH]c6cc(OC)ccc56)C4CC3C(C(=O)OC)C2OC)cc1OC` (stereo not drawn), the LC retention time is 6.72 min. As for `COc1cc(C=CC(=O)NCCCCN)ccc1O`, the figure is 2.7 min; as for `CCC1C(=O)OCC1Cc1cncn1C` (stereo not drawn), 2.4 min; as for `CCSSCC(NCC1(O)OCC(O)C(O)C1O)C(=O)NCCC(=O)O` (stereo not drawn), 3.29 min. On to `CCC(C)C(NCC1(O)OCC(O)C(O)C1O)C(=O)NC(CCC(=O)O)C(=O)O` (stereo not drawn), for which the LC retention time is 2.07 min.

`O=C1C(=Cc2ccc(O)c(O)c2)Oc2c1ccc(OC1OC(CO)C(O)C(O)C1O)c2O` (stereo not drawn): the LC retention time was 4 min.

With `C=CC1C(OC2OC(CO)C(O)C(O)C2O)OC=C(C(=O)O)C1Cc1nccc2c1[nH]c1ccccc12` (stereo not drawn), the LC retention time was 3.72 min. On to `COc1c(CC=C(C)C)c(O)cc2c1C1Oc3cc(O)c(CC=C(C)C)cc3C1CO2` (stereo not drawn), for which the LC retention time was 9.29 min. As for `COc1cc2c(cc1OC)C1C(C)c3ccc(OC)c(OC)c3CN1CC2` (stereo not drawn), the LC retention time was 4.86 min. As for `Nc1ccc(C(=O)NC(CCC(=O)O)C(=O)O)cc1` (stereo not drawn), the figure is 3.22 min; as for `CCCCCC=CCC=CCC=CCCCCC(=O)OC(CO)COP(=O)(O)OCCN` (stereo not drawn), 8.73 min. Regarding `Cc1c(N)c(=O)n(-c2ccccc2)n1C`, the LC retention time is 2.76 min. For `COc1cc(C=CC=O)cc(OC)c1O`, the LC retention time was 4.73 min.

Source of the values: the RepoRT retention time repository.
